Key:
Assay in all cases: relative viability (nuclei count vs DMSO), 5 days (fraction); higher = more cells survive
Linifanib + Vorinostat = compound: Cc1ccc(F)c(NC(=O)Nc2ccc(-c3cccc4[nH]nc(N)c34)cc2)c1 [Linifanib] + O=C(CCCCCCC(=O)Nc1ccccc1)NO [Vorinostat] (partner 1 µM)
Outline: (§1)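 Dosing by pin tool came one day after lung cancer cell lines were seeded in 1536-well plates, using either one drug or a fixed anchor-drug dose plus five library-drug doses (not always all listed) in √10 steps. After 5 days, nuclei were counted on 4× images. Relative viability is treated-well nuclei count divided by vehicle-well nuclei count, and values are medians of duplicate plates.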

Linifanib + Dasatinib = compound: Cc1ccc(F)c(NC(=O)Nc2ccc(-c3cccc4[nH]nc(N)c34)cc2)c1 [Linifanib] + Cc1nc(Nc2ncc(C(=O)Nc3c(C)cccc3Cl)s2)cc(N2CCN(CCO)CC2)n1 [Dasatinib] (partner 0.075 µM)
Outline: as §1

Linifanib + Trametinib = compound: Cc1ccc(F)c(NC(=O)Nc2ccc(-c3cccc4[nH]nc(N)c34)cc2)c1 [Linifanib] + CC(=O)Nc1cccc(-n2c(=O)n(C3CC3)c(=O)c3c(Nc4ccc(I)cc4F)n(C)c(=O)c(C)c32)c1 [Trametinib] (partner 0.02 µM)
Outline: as §1

Linifanib + Decitabine = compound: Cc1ccc(F)c(NC(=O)Nc2ccc(-c3cccc4[nH]nc(N)c34)cc2)c1 [Linifanib] + Nc1ncn([C@H]2C[C@H](O)[C@@H](CO)O2)c(=O)n1 [Decitabine] (partner 2 µM)
Outline: as §1

Linifanib + Lapatinib = compound: Cc1ccc(F)c(NC(=O)Nc2ccc(-c3cccc4[nH]nc(N)c34)cc2)c1 [Linifanib] + CS(=O)(=O)CCNCc1ccc(-c2ccc3ncnc(Nc4ccc(OCc5cccc(F)c5)c(Cl)c4)c3c2)o1 [Lapatinib] (partner 2 µM)
Outline: as §1

Linifanib + OSI-027 = compound: Cc1ccc(F)c(NC(=O)Nc2ccc(-c3cccc4[nH]nc(N)c34)cc2)c1 [Linifanib] + COc1cccc2cc(-c3nc([C@H]4CC[C@H](C(=O)O)CC4)n4ncnc(N)c34)[nH]c12 [OSI-027] (partner 0.5 µM)
Outline: as §1

Cell Line	relative viability (Linifanib + Vorinostat; first compound 0.03162 µM)	relative viability (Linifanib + Vorinostat; first compound 0.1 µM)	relative viability (Linifanib + Vorinostat; first compound 0.3162 µM)	relative viability (Linifanib + Dasatinib; first compound 0.03162 µM)	relative viability (Linifanib + Dasatinib; first compound 0.1 µM)	relative viability (Linifanib + Dasatinib; first compound 0.3162 µM)	relative viability (Linifanib + Trametinib; first compound 0.03162 µM)	relative viability (Linifanib + Trametinib; first compound 0.1 µM)	relative viability (Linifanib + Trametinib; first compound 0.3162 µM)	relative viability (Linifanib + Decitabine; first compound 0.03162 µM)	relative viability (Linifanib + Decitabine; first compound 0.1 µM)	relative viability (Linifanib + Decitabine; first compound 0.3162 µM)	relative viability (Linifanib + Lapatinib; first compound 0.03162 µM)	relative viability (Linifanib + Lapatinib; first compound 0.1 µM)	relative viability (Linifanib + Lapatinib; first compound 0.3162 µM)	relative viability (Linifanib + OSI-027; first compound 0.03162 µM)	relative viability (Linifanib + OSI-027; first compound 0.1 µM)	relative viability (Linifanib + OSI-027; first compound 0.3162 µM)
NCI-H1975	0.649	0.735	0.697	0.396	0.367	0.344	0.298	0.525	0.355	0.384	0.446	0.413	0.898	1.11	0.874	0.675	0.753	0.706
NCI-H1993	1.08	0.958	0.825	0.683	0.551	0.681	0.623	0.593	0.61	0.631	0.654	0.59	0.796	0.853	0.878	0.495	0.552	0.61
NCI-H2009	0.695	0.781	0.743	0.323	0.358	0.304	0.266	0.343	0.274	0.371	0.41	0.378	1.23	0.928	0.941	0.705	0.673	0.644
NCI-H2023	0.655	0.807	0.612	0.543	0.681	0.565	0.538	0.675	0.554	0.228	0.228	0.203	0.801	1.06	0.733	0.426	0.539	0.37
NCI-H2085	0.854	0.832	0.792	0.252	0.239	0.268	0.67	0.503	0.59	0.535	0.632	0.573	0.809	0.83	0.734	0.842	0.733	0.758
NCI-H2087	0.854	0.695	0.598	1.12	1.22	0.787	0.188	0.235	0.195	0.31	0.248	0.268	1.15	1.2	0.672	0.643	0.585	0.563
NCI-H2126	0.797	0.859	0.873	0.622	0.718	0.622	0.584	0.571	0.547	0.58	0.538	0.575	0.792	0.788	0.779	0.742	0.747	0.665
NCI-H2170	0.806	0.814	0.823	0.662	0.611	0.579	0.922	0.855	0.937	0.472	0.448	0.453	0.255	0.277	0.279	0.655	0.747	0.732
NCI-H2347	0.73	0.773	0.665	0.356	0.399	0.284	0.283	0.292	0.264	0.622	0.616	0.598	0.955	0.927	0.909	0.476	0.434	0.415
NCI-H2405	0.988	1.05	0.951	0.212	0.199	0.219	0.599	0.675	0.596	0.766	0.747	0.756	1.19	1.05	1.12	0.667	0.66	0.624
NCI-H3122	1.12	1.09	0.927	0.908	0.908	0.877	0.273	0.251	0.19	0.442	0.418	0.487	1.11	1.11	0.922	0.947	0.989	0.995
PC-3 [JPC-3]	0.671	0.747	0.775	1.04	1.01	0.972	0.706	0.756	0.659	0.766	0.792	0.847	0.482	0.413	0.496	0.702	0.771	0.659
PC-14	0.784	0.83	0.768	0.259	0.262	0.266	0.689	0.715	0.666	0.231	0.252	0.206	0.32	0.436	0.305	0.844	1.08	0.762
RERF-LC-KJ	0.737	0.804	0.727	0.836	0.983	0.937	0.871	0.87	0.877	0.707	0.651	0.717	0.885	0.891	0.868	0.572	0.654	0.616
SK-LU-1	0.74	0.749	0.828	0.205	0.196	0.193	0.457	0.745	0.48	0.672	0.645	0.669	0.84	1.12	0.738	0.387	0.472	0.337
SK-MES-1	1.13	1.05	1.05	0.336	0.455	0.388	0.528	0.568	0.507	0.352	0.408	0.36	0.456	0.534	0.384	0.625	0.613	0.595
SW 1573	0.909	0.93	0.594	0.578	0.931	0.539	0.505	0.674	0.563	0.514	0.604	0.584	1.27	1.27	1.15	0.648	0.665	0.625

From the supplement of paper PMC10307832
